Drawing on patent US20200055839A1 (priority 2017, published 2020), this text covers EC50 for 25 molecules.

Each structure is given as a SMILES string. pEC50: −log10 of the molar value.

The test system of this assay is NL-RLuc virus. Briefly: Inhibition of HIV replication (NL-RLuc virus, luciferase readout in MT-2 cells). Particulars: MT-2 cells infected with NL-RLuc virus, 5 days of incubation, 10% FBS, at least 2 experiments. Format: cell-based. An excerpt: Inhibition of HIV Replication:
A recombinant NL-RLuc proviral clone was constructed in which a section of the nef gene form NL4-3 was replaced with the Renilla Luciferase gene. This virus is fully infectious and can undergo multiple cycles of replication in cell culture. In addition, the luciferous reporter provides a simple and easy method for quantitating the extent of virus growth and consequently, the antiviral activity of test compounds. The plasmid pNLRLuc contains the proviral NL-Rluc DNA cloned into pUC18 at the PvuII site. The NL-RLuc virus was prepared by transfection of 293T cells with the plasmid pNLRLuc. Transfections were performed using the LipofectAMINE PLUS kit form Invitrogen (Carlsbad, Calif.) according to the manufacturer and the virus generated was titered in MT-2 cells. For susceptibility analyses, the titrated virus was used to infect MT-2 cells in the presence of compound, and after 5 days of incubation, cells were processed and quantitated for virus growth by the amount of expressed luciferase. Assay media was RPMI 1640 supplemented with 10% heat inactivated fetal bovine serum (FBS), 100 units/ml penicillin G/100 units/ml streptomycin, 10 mM HEPES buffer pH 7.55 and 2 mM L-glutamine. The results form at least 2 experiments were used to calculate the EC50 values. Luciferase was quantitated using the Dual Luciferase kit form Promega (Madison, Wis.). Susceptibility of viruses to compounds was determined by incubation in the presence of serial dilutions of the compound. The 50% effective concentration (EC50) was calculated by using the exponential form of the median effect equation where (Fa)=1/[1+(ED50/drug conc.)^m](Johnson V A, Byington R T. Infectivity Assay. In Techniques in HIV Research. ed. Aldovini A, Walker B D. 71-76. New York: Stockton Press. 1990).

Setting [1] is: Human immunodeficiency virus 1, MT2, 120 h.

For the molecule `Cc1ncc(-c2cc(F)c(OCCc3ccc(F)cc3)cc2F)c(N2CCC(C)(C)CC2)c1[C@H](OC(C)(C)C)C(=O)O` [Example 125, (2S)-2-(tert-Butoxy)-2-(5-{2,5-difluoro-4-[2-(4-fluorophenyl)ethoxy]phenyl}-4-(4,4-dimethylpiperidin-1-yl)-2-methylpyridin-3-yl)acetic acid], the pEC50 under setting [1] is 8.52.
Consider `Cc1nc(Nc2ccnc(F)c2)c(-c2ccc(OCCc3ccc(F)cc3)cc2)c(N2CCC(C)(C)CC2)c1[C@H](OC(C)(C)C)C(=O)O` [Example 96, (S)-2-(tert-Butoxy)-2-(4-(4,4-dimethylpiperidin-1-yl)-5-(4-(4-fluorophenethoxy)phenyl)-6-((2-fluoropyridin-4-yl)amino)-2-methylpyridin-3-yl)acetic acid], for which the pEC50 was 7.68.
For the molecule `CCCCCOc1ncc(-c2cnc(C)c([C@H](OC(C)(C)C)C(=O)O)c2N2CCC(C)(C)CC2)cc1F` [Example 407, (2S)-2-(tert-butoxy)-2-[4-(4,4-dimethylpiperidin-1-yl)-5′-fluoro-6-methyl-6′-(pentyloxy)-[3,3′-bipyridine]-5-yl]acetic acid], the pEC50 under setting [1] is 8.40.
On the same count and under the same terms, for `Cc1ncc(-c2ccc(OC(C)C)c(F)c2F)c(N2CCC(C)(C)CC2)c1[C@H](OC(C)(C)C)C(=O)O` [Example 169, (2S)-2-(tert-Butoxy)-2-{5-[2,3-difluoro-4-(propan-2-yloxy)phenyl]-4-(4,4-dimethylpiperidin-1-yl)-2-methylpyridin-3-yl}acetic acid] the value was 8.15.
Under setting [1], `Cc1ncc(-c2cccc(C(N)=O)c2)c(N2CCC(C)(C)CC2)c1[C@H](OC(C)(C)C)C(=O)O` [Example 146, (2S)-2-(tert-Butoxy)-2-[5-(3-carbamoylphenyl)-4-(4,4-dimethylpiperidin-1-yl)-2-methylpyridin-3-yl]acetic acid] had a pEC50 of 6.85.
Still for that read-out and setting: with `Cc1ncc(-c2cnc(OC(C)CC(C)C)c(F)c2)c(N2CCC(C)(C)CC2)c1[C@H](OC(C)(C)C)C(=O)O` (stereo partly drawn) [Example 384, (2S)-2-(tert-butoxy)-2-[4-(4,4-dimethylpiperidin-1-yl)-5′-fluoro-6-methyl-6′-[(4-methylpentan-2-yl)oxy]-[3,3′-bipyridine]-5-yl]acetic acid] the figure was 8.05; with `CC1(C)CCN(c2c(-c3ccc(F)c(F)c3)cnc(Cl)c2[C@H](OC(C)(C)C)C(=O)O)CC1` [Example 208, (S)-2-(tert-Butoxy)-2-(2-chloro-5-(3,4-difluorophenyl)-4-(4,4-dimethylpiperidin-1-yl)pyridin-3-yl)acetic acid], 7.46; with `Cc1ncc(-c2ccc(OCCc3cccc(Cl)c3)cn2)c(N2CCC(C)(C)CC2)c1[C@H](OC(C)(C)C)C(=O)O` [Example 308, (2S)-2-(tert-butoxy)-2-{5-[2-(3-chlorophenyl)ethoxy]-4′-(4,4-dimethylpiperidin-1-yl)-6′-methyl-[2,3′-bipyridine]-5′-yl}acetic acid], 9.15.
Still for that read-out and setting: for `Cc1ncc(-c2ccc(OCCCC(C)C)cn2)c(N2CCC(C)(C)CC2)c1[C@H](OC(C)(C)C)C(=O)O` [Example 345, (2S)-2-(tert-butoxy)-2-[4′-(4,4-dimethylpiperidin-1-yl)-6′-methyl-5-[(4-methylpentyl)oxy]-[2,3′-bipyridine]-5′-yl]acetic acid] the value was 8.70; for `Cc1ncc(-c2ccc(OCC(C)C)cn2)c(N2CCC(C)(C)CC2)c1[C@H](OC(C)(C)C)C(=O)O` [Example 312, (2S)-2-(tert-butoxy)-2-[4′-(4,4-dimethylpiperidin-1-yl)-6′-methyl-5-(2-methylpropoxy)-[2,3′-bipyridine]-5′-yl]acetic acid], 9.00; for `Cc1ncc(-c2cccc3cccnc23)c(N2CCC(C)(C)CC2)c1[C@H](OC(C)(C)C)C(=O)O` [Example 184, (2S)-2-(tert-Butoxy)-2-[4-(4,4-dimethylpiperidin-1-yl)-2-methyl-5-(quinolin-8-yl)pyridin-3-yl]acetic acid], 8.10.
Same read-out and setting: with `Cc1ncc(-c2ccc3ccccc3n2)c(N2CCC(C)(C)CC2)c1[C@H](OC(C)(C)C)C(=O)O` [Example 266, (S)-2-(tert-Butoxy)-2-(4-(4,4-dimethylpiperidin-1-yl)-2-methyl-5-(quinolin-2-yl)pyridin-3-yl)acetic acid] the figure was 7.96.
In turn, `Cc1ncc(-c2cnc(NCCc3ccc(F)cc3)c(F)c2)c(N2CCC(C)(C)CC2)c1[C@H](OC(C)(C)C)C(=O)O` [Example 416, (S)-2-(tert-Butoxy)-2-(4-(4,4-dimethylpiperidin-1-yl)-5′-fluoro-6′-((4-fluorophenethyl)amino)-6-methyl-[3, 3′-bipyridin]-5-yl)acetic acid] had a pEC50 of 9.22.
Turning to `Cc1nc(C(C)O)c(-c2ccc(OCCc3ccc(F)cc3)c(F)c2)c(N2CCC(C)(C)CC2)c1[C@H](OC(C)(C)C)C(=O)O` (single isomer, unassigned) [Example 237], the negative-log EC50 (pEC50) was 8.52.
`CCc1ncc(-c2ccc(OCCc3ccc(F)cc3)cn2)c(N2CCC(C)(C)CC2)c1[C@H](OC(C)(C)C)C(=O)O` [Example 270] showed a negative logarithm of the EC50 (pEC50) under setting [1] of 9.22.
With `Cc1ncc(-c2cccc(OCCc3ccc(F)cc3)n2)c(N2CCC(C)(C)CC2)c1[C@H](OC(C)(C)C)C(=O)O` [Example 280, (S)-2-(tert-Butoxy)-2-(4′-(4,4-dimethylpiperidin-1-yl)-6-(4-fluorophenethoxy)-6′-methyl-[2, 3′-bipyridin]-5′-yl)acetic acid], the pEC50 under setting [1] was 7.70.
With `COc1ccc(CCOc2ccc(-c3cnc(C)c([C@H](OC(C)(C)C)C(=O)O)c3N3CCC(C)(C)CC3)nc2)c(C)c1` [Example 292, (2S)-2-(tert-butoxy)-2-[4′-(4,4-dimethylpiperidin-1-yl)-5-[2-(4-methoxy-2-methylphenyl)ethoxy]-6′-methyl-[2,3′-bipyridine]-5′-yl]acetic acid], the pEC50 under setting [1] was 8.70.
`CC1(C)CCN(c2c(-c3ccc(OCCc4ccc(F)cc4)cn3)cnc(CO)c2[C@H](OC(C)(C)C)C(=O)O)CC1` [Example 269, (S)-2-(tert-Butoxy)-2-(4′-(4,4-dimethylpiperidin-1-yl)-5-(4-fluorophenethoxy)-6′-(hydroxymethyl)-[2, 3′-bipyridin]-5′-yl)acetic acid] had a pEC50 under setting [1] of 8.05.
Still for that read-out and setting: for `Cc1nc(CN2CCC3(CCC3)CC2)c(-c2ccc(OCCc3ccc(F)cc3)c(F)c2)c(N2CCC(C)(C)CC2)c1[C@H](OC(C)(C)C)C(=O)O` [Example 231, (S)-2-(6-((7-Azaspiro[3.5]nonan-7-yl)methyl)-4-(4,4-dimethylpiperidin-1-yl)-5-(3-fluoro-4-(4-fluorophenethoxy)phenyl)-2-methylpyridin-3-yl)-2-(tert-butoxy)acetic acid] the value was 9.22; for `Cc1nc(-c2cnc(C)c([C@H](OC(C)(C)C)C(=O)O)c2N2CCC(C)(C)CC2)ncc1OCCc1ccc(F)cc1` [Example 245, (S)-2-(tert-Butoxy)-2-(4-(4,4-dimethylpiperidin-1-yl)-5-(5-(4-fluorophenethoxy)-4-methylpyrimidin-2-yl)-2-methylpyridin-3-yl)acetic acid], 8.70; for `Cc1ncc(-c2cccc(Cl)c2F)c(N2CCC(C)(C)CC2)c1[C@H](OC(C)(C)C)C(=O)O` [Example 145, (2S)-2-(tert-Butoxy)-2-[5-(3-chloro-2-fluorophenyl)-4-(4,4-dimethylpiperidin-1-yl)-2-methylpyridin-3-yl]acetic acid], 8.30.
With `Cc1ncc(-c2cnc(OCCc3ccccc3Cl)c(F)c2)c(N2CCC(C)(C)CC2)c1[C@H](OC(C)(C)C)C(=O)O` [Example 238, (S)-2-(tert-Butoxy)-2-(6′-(2-chlorophenethoxy)-4-(4,4-dimethylpiperidin-1-yl)-5′-fluoro-6-methyl-[3, 3′-bipyridin]-5-yl)acetic acid], the negative-log EC50 (pEC50) under setting [1] was 8.70.
On the same count and under the same terms, for `Cc1nc(Nc2cccnc2)c(-c2ccc(OCCc3ccc(F)cc3)cc2)c(N2CCC(C)(C)CC2)c1[C@H](OC(C)(C)C)C(=O)O` [Example 64, (S)-2-(tert-Butoxy)-2-(4-(4,4-dimethylpiperidin-1-yl)-5-(4-(4-fluorophenethoxy)phenyl)-2-methyl-6-(pyridin-3-ylamino)pyridin-3-yl)acetic acid] the value was 8.30.
Same read-out and setting: for `CCCOc1ccc(-c2cnc(C)c([C@H](OC(C)(C)C)C(=O)O)c2N2CCC(C)(C)CC2)nc1` [Example 318, (2S)-2-(tert-butoxy)-2-[4′-(4,4-dimethylpiperidin-1-yl)-6′-methyl-5-propoxy-[2,3′-bipyridine]-5′-yl]acetic acid] the value was 8.52.
On to `Cc1cccc(Cl)c1COc1ccc(-c2cnc(C)c([C@H](OC(C)(C)C)C(=O)O)c2N2CCC(C)(C)CC2)cn1` [Example 423, (S)-2-(tert-Butoxy)-2-(6′-((2-chloro-6-methylbenzyl)oxy)-4-(4,4-dimethylpiperidin-1-yl)-6-methyl-[3, 3′-bipyridin]-5-yl)acetic acid], for which the pEC50 under setting [1] is 8.10. Against the preceding molecule, the pEC50 is 0.42 log units lower.
